Results: patent publication US12187773B2, “Modified GIP peptide analogues” (Antag Therapeutics ApS, priority 2018, dated 2025)
Read-outs that look alike come from different tables or passages of the source. *1 amine or outer side, *2 acyl side, *3 side chain or, on linkers, in order; H or OH if unused. Where a SMILES comes first, the peptide text is derived from it. Side-chain parts run from the residue outwards. [ ]: non-standard residue; d: D form. The star is where a group is joined. C16 diacid = O=C(O)CCCCCCCCCCCCCCC(=O)*; γGlu = O=C(O)[C@H](CCC(=O)[*:2])N[*:1]; pGlu = O=C1CC[C@@H](C(=O)O)N1; AEEA = NCCOCCOCC(=O)O

What was measured:
human GIP receptor [1] = target: T1, human GIP receptor (Homo sapiens, UniProt P48546); assay: cAMP accumulation, antagonism (DiscoveRx HitHunter cAMP XS assay); assay type: cell-based; design: host or cells: COS-7 (transient, calcium phosphate; pCMV-Script vector); settings: for cAMP antagonism, % inhib: COS-7 cells, % inhibition of Emax
T1 sequence (P48546 22-466): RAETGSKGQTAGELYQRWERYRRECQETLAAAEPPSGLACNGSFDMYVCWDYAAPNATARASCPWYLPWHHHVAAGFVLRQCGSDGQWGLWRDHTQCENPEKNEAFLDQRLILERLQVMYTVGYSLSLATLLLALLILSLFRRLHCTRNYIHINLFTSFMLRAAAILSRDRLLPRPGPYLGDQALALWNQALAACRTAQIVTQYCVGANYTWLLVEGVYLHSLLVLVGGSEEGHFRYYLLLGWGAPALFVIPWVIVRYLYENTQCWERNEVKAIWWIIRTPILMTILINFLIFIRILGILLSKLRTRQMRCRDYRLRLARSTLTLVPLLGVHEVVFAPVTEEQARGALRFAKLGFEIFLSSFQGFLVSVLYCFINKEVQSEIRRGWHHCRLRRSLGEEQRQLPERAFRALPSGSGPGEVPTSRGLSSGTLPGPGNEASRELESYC
In short: (§1)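 cAMP accumulation measured by HitHunter cAMP XS in COS-7 cells transiently expressing human GIP receptor, after 30 min in HBS with 1 mM IBMX at 37 °C. Antagonists preincubated 10 min before GIP giving 50-80% of maximum, then 20 min more; agonist mode used 30 min ligand exposure.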

human GIP receptor [2] = target: T1, human GIP receptor; assay: cAMP antagonism (CisBio cAMP Dynamic 2 HTRF assay); assay type: cell-based; design: pCMV-Script vector; settings: Table 1C, CisBio, HEK-293 cells; for IC50: cAMP antagonism, nM (IC50), agonist GIP1-42 at EC50
In short: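 Four-parameter fits of cAMP dose-response gave pIC50. cAMP fall was quantified by HTRF competition, ratio 665/620 nm after 60 min at room temperature, against a cAMP standard curve.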

[3] = Elimination half-life (T1/2) estimated in Göttingen minipigs; assay type: in vivo
Description: 2-3 Göttingen minipigs were subcutaneously administered one of the GIP analogues of the present invention (1-10 nmol/kg, total volume 2-6 mL) and blood samples were collected before and up to 432 hours post subcutaneous administration.) from a central venous catheter. The catheter was flushed with saline and heparin between samples. Blood was collected into cold EDTA tubes, centrifuged and plasma was kept at −20° C. pending analyses.
Concentrations of the acylated GIP(3-30)NH2 or GIP(5-30)NH2 analogues in blood samples from Göttingen minipigs were analyzed by RIA. Analogues' immunoreactivity was determined using antiserum Ab95234, Ab95235, Ab95236, a polyclonal in-house antibody raised in rabbits specific for either the mid region of GIP(1-30)NH2 or amidated C-terminus of GIP(3-30)NH2.
In addition to the hormone analysis, blood concentrations of AT374, 380, 382-385, 392-393 were determined by LC/MS performed by Red Glead Discovery AB, Lund, Sweden. The plasma samples were precipitated by addition of 3 parts ethanol followed by thorough mixing. After centrifugation and dilution of the supernatant, the samples were analyzed by LC-MS/MS and compared with a 9-point calibration curve. The calibration curves were prepared in naïve plasma matrix from Göttingen minipigs.

human GIP receptor [4] = target: T1, human GIP receptor; assay: cAMP agonism (CisBio cAMP Dynamic 2 HTRF assay); assay type: cell-based; settings: HEK293, read-out: cAMP agonism, % Efficacy, Table 1C, HEK-293 cells
Description: To test for agonistic properties at the GIP receptor, compounds were diluted and added to cells as described above and incubated for 30 min at 37° C. The resulting increase in intracellular cAMP was determined using the CisBio cAMP Dynamic 2 HTRF Assay Kit as described above.

human GIP receptor [5] = target: T1, human GIP receptor; assay: cAMP accumulation, agonism (DiscoveRx HitHunter cAMP XS assay); assay type: cell-based; design: host or cells: COS-7 (transient, calcium phosphate; pCMV-Script vector); settings: for cAMP agonism, Emax: Table 1B, DiscoveRx, COS-7 cells
In short: as §1

[6] = sc, Table 1B, species not given, unit h, LC/MS in Göttingen minipig plasma for these IDs, subcutaneous 1-10 nmol/kg, read-out: T½ (converted)
[7] = cAMP antagonism, nM (IC50), Table 1B, DiscoveRx, transiently transfected COS-7 cells

| Structure (SMILES) | IC50 (human GIP receptor [1]; IC50-value (GIPR antagonism), Examples 1 and 2, values of Tables 1B and 2) | cAMP antagonism, % inhib (human GIP receptor [1]; Table 1B, DiscoveRx) | cAMP antagonism, % inhib (human GIP receptor [2]) | IC50 (human GIP receptor [2]) | half-life [3, 6] | Emax (human GIP receptor [4]) | cAMP agonism, Emax (human GIP receptor [5]) | IC50 (human GIP receptor [1]; [7]) | half-life ([3]; Göttingen, minipig, plasma, subcutaneous, Example 1, read-out: T1/2 (converted)) | Emax (human GIP receptor [5]; COS-7, read-out: cAMP agonism, Emax) |
| --- | --- | --- | --- | --- | --- | --- | --- | --- | --- | --- |
| CC[C@H](C)[C@H](NC(=O)[C@H](CO)NC(=O)[C@H](Cc1ccc(O)cc1)NC(=O)[C@H](CC(=O)O)NC(=O)[C@H](CO)NC(=O)[C@@H](NC(=O)[C@H](Cc1ccccc1)NC(=O)[C@@H](NC(=O)CNC(=O)[C@@H](N)CCC(=O)O)[C@@H](C)O)[C@@H](C)CC)C(=O)N[C@@H](C)C(=O)N[C@@H](CCSC)C(=O)N[C@@H](CC(=O)O)C(=O)N[C@@H](CCCNC(=N)N)C(=O)N[C@H](C(=O)N[C@@H](CCCCNC(=O)COCCOCCNC(=O)COCCOCCNC(=O)CC[C@H](NC(=O)CCCCCCCCCCCCCCC(=O)O)C(=O)O)C(=O)N[C@@H](CCC(N)=O)C(=O)N[C@@H](CCC(N)=O)C(=O)N[C@@H](CC(=O)O)C(=O)N[C@@H](Cc1ccccc1)C(=O)N[C@H](C(=O)N[C@@H](CC(N)=O)C(=O)N[C@@H](Cc1c[nH]c2ccccc12)C(=O)N[C@@H](CC(C)C)C(=O)N[C@@H](CC(C)C)C(=O)N[C@@H](C)C(=O)N[C@@H](CCC(N)=O)C(=O)N[C@@H](CCCNC(=N)N)C(N)=O)C(C)C)[C@@H](C)CC [AT374] (H-EGTFISDYSIAMDRIK([AEEA-AEEA-γGlu-C16 diacid])QQDFVNWLLAQR-NH2; N-terminus assumed) | 12 nM | 100% | 86% | 17.1 nM | 14 h | 0% | No Agonism |  |  |  |
| CC[C@H](C)[C@H](NC(=O)[C@H](CO)NC(=O)[C@H](Cc1ccc(O)cc1)NC(=O)[C@H](CC(=O)O)NC(=O)[C@H](CO)NC(=O)[C@@H](NC(=O)[C@H](Cc1ccccc1)NC(=O)[C@@H](NC(=O)CNC(=O)[C@@H]1CCC(=O)N1)[C@@H](C)O)[C@@H](C)CC)C(=O)N[C@@H](C)C(=O)N[C@@H](CCSC)C(=O)N[C@@H](CC(=O)O)C(=O)N[C@@H](CCCNC(=N)N)C(=O)N[C@H](C(=O)N[C@@H](CCCCNC(=O)COCCOCCNC(=O)COCCOCCNC(=O)COCCOCCNC(=O)CC[C@H](NC(=O)CCCCCCCCCCCCCCC(=O)O)C(=O)O)C(=O)N[C@@H](CCC(N)=O)C(=O)N[C@@H](CCC(N)=O)C(=O)N[C@@H](CC(=O)O)C(=O)N[C@@H](Cc1ccccc1)C(=O)N[C@H](C(=O)N[C@@H](CC(N)=O)C(=O)N[C@@H](Cc1c[nH]c2ccccc12)C(=O)N[C@@H](CC(C)C)C(=O)N[C@@H](CC(C)C)C(=O)N[C@@H](C)C(=O)N[C@@H](CCC(N)=O)C(=O)N[C@@H](CCCNC(=N)N)C(N)=O)C(C)C)[C@@H](C)CC [AT380] ([pGlu]GTFISDYSIAMDRIK([AEEA-AEEA-AEEA-γGlu-C16 diacid])QQDFVNWLLAQR-NH2) |  | 100% | 82% | 85.8 nM | 20 h | 8% | No Agonism | 7 nM | 20 h |  |
| CC[C@H](C)[C@H](NC(=O)[C@H](CO)NC(=O)[C@H](Cc1ccc(O)cc1)NC(=O)[C@H](CC(=O)O)NC(=O)[C@H](CO)NC(=O)[C@@H](NC(=O)[C@H](Cc1ccccc1)NC(=O)[C@@H](NC(=O)CNC(=O)[C@@H](N)CO)[C@@H](C)O)[C@@H](C)CC)C(=O)N[C@@H](C)C(=O)N[C@@H](CCSC)C(=O)N[C@@H](CC(=O)O)C(=O)N[C@@H](CCCNC(=N)N)C(=O)N[C@H](C(=O)N[C@@H](CCCCNC(=O)COCCOCCNC(=O)COCCOCCNC(=O)CC[C@H](NC(=O)CCCCCCCCCCCCCCC(=O)O)C(=O)O)C(=O)N[C@@H](CCC(N)=O)C(=O)N[C@@H](CCC(N)=O)C(=O)N[C@@H](CC(=O)O)C(=O)N[C@@H](Cc1ccccc1)C(=O)N[C@H](C(=O)N[C@@H](CC(N)=O)C(=O)N[C@@H](Cc1c[nH]c2ccccc12)C(=O)N[C@@H](CC(C)C)C(=O)N[C@@H](CC(C)C)C(=O)N[C@@H](C)C(=O)N[C@@H](CCC(N)=O)C(=O)N[C@@H](CCCNC(=N)N)C(N)=O)C(C)C)[C@@H](C)CC [AT516] (H-SGTFISDYSIAMDRIK([AEEA-AEEA-γGlu-C16 diacid])QQDFVNWLLAQR-NH2; N-terminus assumed) |  | 100% | 88% |  |  | 0% | No Agonism | 31 nM |  |  |
| CC[C@H](C)[C@H](NC(=O)[C@H](CO)NC(=O)[C@H](Cc1ccc(O)cc1)NC(=O)[C@H](CC(=O)O)NC(=O)[C@H](CO)NC(=O)[C@@H](NC(=O)[C@H](Cc1ccccc1)NC(=O)[C@@H](NC(=O)CNC(=O)[C@@H]1CCCN1)[C@@H](C)O)[C@@H](C)CC)C(=O)N[C@@H](C)C(=O)N[C@@H](CCSC)C(=O)N[C@@H](CC(=O)O)C(=O)N[C@@H](CCCNC(=N)N)C(=O)N[C@H](C(=O)N[C@@H](CCCCNC(=O)COCCOCCNC(=O)COCCOCCNC(=O)CC[C@H](NC(=O)CCCCCCCCCCCCCCC(=O)O)C(=O)O)C(=O)N[C@@H](CCC(N)=O)C(=O)N[C@@H](CCC(N)=O)C(=O)N[C@@H](CC(=O)O)C(=O)N[C@@H](Cc1ccccc1)C(=O)N[C@H](C(=O)N[C@@H](CC(N)=O)C(=O)N[C@@H](Cc1c[nH]c2ccccc12)C(=O)N[C@@H](CC(C)C)C(=O)N[C@@H](CC(C)C)C(=O)N[C@@H](C)C(=O)N[C@@H](CCC(N)=O)C(=O)N[C@@H](CCCNC(=N)N)C(N)=O)C(C)C)[C@@H](C)CC [AT518] (H-PGTFISDYSIAMDRIK([AEEA-AEEA-γGlu-C16 diacid])QQDFVNWLLAQR-NH2; N-terminus assumed) |  | 100% | 71% | 85.8 nM |  | 0% |  |  |  | 5% |
